Assay results taken from patent US8318186B2, “Use of at least a fatty ester for preparing a composition designed to inhibit 5-α-reductase activity, in pharmacology, in particular dermatology, in cosmetics and as food additive” (Laboratoires Expanscience, priority 2000, dated 2012).
Values joined by “and” are separate entries in the source; they are usually repeats but may differ in a detail not shown here. Equal entries are not always repeated. Marks after values point to notes of the source that are not given here.

Tested on: 5α-reductase
Assay: Fatty acid esters on 5α-reductase activity, conversion of testosterone to 5α-dihydrotestosterone in normal human dermal fibroblast cultures (Example 4)
Type: cell-based
Design: key to group by 5α-reductase inhibitory activity: group A with the highest inhibitory activity; group B with an intermediate inhibitory activity
Conditions: for inhibition of the 5α-reductase activity: Example 4, p<0.05; for 5α-DHT formed per culture well, mean / 5α-DHT formed per culture well, single well: after 24 of incubation, DMSO 0.1% (v/v); for 5α-DHT formed per culture well, single well: single replicate; for group by 5α-reductase inhibitory activity: tested at 1, 10 and 100 μg/ml
Procedure: The fibroblast culture medium (FCM) consisted of MEM/M199 (3:1, v/v) supplemented with penicillin (50 IU/ml), streptomycin (50 μg/ml), sodium bicarbonate (0.2%, w/v) and FCS (10%, v/v).
The assay system consisted of normal human dermal fibroblasts cultured as a monolayer. The fibroblasts were isolated from a residue from abdominal plastic surgery performed on a person (subject BIOPREDIC No. I0013). The cells were used at the fifth passage; they were cultured until the monolayers were confluent in FCM medium at 37° C. in a humid atmosphere containing 5% CO2.
The fibroblast incubation medium (FIM) consisted of FCM supplemented with tritiated testosterone (1.6×10^−7 M, that is 6.32 μCi/ml) and nonradiolabeled testosterone (3.84×10^−6 M)
The test products and finasteride were taken up in DMSO before being diluted in the incubation medium. […]
The fibroblast cultures were preincubated in the presence of the test products or of the reference product for 2 hours before adding the substrate, testosterone. For this step, the test products and the reference product were prepared in the FCM medium.
After preincubation, the fibroblast cultures were incubated in the presence of the test products or of the reference product prepared in the FIM medium for 22 hours at 37° C. in a humid atmosphere containing 5% CO2. Control cultures were incubated in the FIM medium in the absence of test products and of reference product. […]
Each experimental condition was tested in triplicate.
After the incubation period, the cells were subjected to the action of ultrasound in the FIM medium. The cellular lysates thus obtained were extracted with dichloromethane. After evaporation, the dry residues were taken up in methanol and were deposited on 60F254 silica plates (MERCK, reference 5554).
The migration solvent was a mixture of dichloromethane and ether (7:3, v/v) At the end of the migration, the silica plates were read using a BERTHOLD radioactivity scanner.
The metabolizing of testosterone to 5α-dihydro-testosterone under the various experimental conditions was calculated: the results (areas of the 5α-dihydrotestosterone peaks counted by the BERTHOLD scanner) were expressed in pmol of 5α-dihydro-testosterone formed per culture well. They were also expressed as a percentage of the 5α-reductase activity present in the “DMSO control” group.
The groups of data (control group and treated groups) were treated by a one-way analysis of variance (ANOVA 1, p<0.05), followed by a DUNNETT's test (p<0.05). The effect of the test products and of the reference product was compared with the “DMSO control” group. The effects of the test products were compared to each other by a two-way analysis of variance (ANOVA 2, p<0.05, factor 1=concentration and factor 2=treatment).
The same materials and methods are used as in example 3 above.
It was proposed to evaluate the effect of fatty acid esters on the 5α-reductase activity. An in vitro model of normal human dermal fibroblast cultures was selected. The products tested were chosen from the group of fatty acid esters varying in the length and the functionality of the fatty chain, and the nature of the alkoxy group. These esters are the following: methyl oleate, methyl linoleate, methyl stearate, methyl laurate, methyl undecylenate, butyl oleate, oleyl oleate and methyl ricinoleate.

Row | Compound | 5α-reductase activity as percentage of the “DMSO 0.1% (v/v)” group (1 μg/ml) | inhibition of the 5α-reductase activity (1 μg/ml) [%] | 5α-DHT formed per culture well, mean (1 μg/ml) | 5α-DHT formed per culture well, single well (1 μg/ml) | 5α-reductase activity as percentage of the “DMSO 0.1% (v/v)” group (10 μg/ml) | inhibition of the 5α-reductase activity (10 μg/ml) [%] | 5α-DHT formed per culture well, mean (10 μg/ml) | 5α-DHT formed per culture well, single well (10 μg/ml) | 5α-reductase activity as percentage of the “DMSO 0.1% (v/v)” group (100 μg/ml) | inhibition of the 5α-reductase activity (100 μg/ml) [%] | 5α-DHT formed per culture well, mean (100 μg/ml) | 5α-DHT formed per culture well, single well (100 μg/ml) | group by 5α-reductase inhibitory activity
1 | C=CCCCCCCCCC(=O)OC [Methyl undecylenate, methyl undecylenate] | 60 percentage of the “DMSO 0.1% (v/v)” group | 40 | 6.89* +/− pmol of 5α-DHT formed/culture well | 6.56 pmol of 5α-DHT formed/culture well and 7.44 pmol of 5α-DHT formed/culture well and 6.68 pmol of 5α-DHT formed/culture well | 68 percentage of the “DMSO 0.1% (v/v)” group | 32 | 7.71* +/− pmol of 5α-DHT formed/culture well | 7.68 pmol of 5α-DHT formed/culture well and 7.84 pmol of 5α-DHT formed/culture well and 7.60 pmol of 5α-DHT formed/culture well | 74 percentage of the “DMSO 0.1% (v/v)” group | 26 | 8.48* +/− pmol of 5α-DHT formed/culture well | 8.68 pmol of 5α-DHT formed/culture well and 7.76 pmol of 5α-DHT formed/culture well and 9.00 pmol of 5α-DHT formed/culture well | B
2 | CCCCC/C=C\C/C=C\CCCCCCCC(=O)OC [Methyl linoleate, methyl linoleate] | 58 percentage of the “DMSO 0.1% (v/v)” group | 42 | 6.60* +/− pmol of 5α-DHT formed/culture well | 7.04 pmol of 5α-DHT formed/culture well and 6.40 pmol of 5α-DHT formed/culture well and 6.36 pmol of 5α-DHT formed/culture well | 60 percentage of the “DMSO 0.1% (v/v)” group | 40 | 6.87* +/− pmol of 5α-DHT formed/culture well | 6.00 pmol of 5α-DHT formed/culture well and 6.60 pmol of 5α-DHT formed/culture well and 8.00 pmol of 5α-DHT formed/culture well | 71 percentage of the “DMSO 0.1% (v/v)” group | 29 | 8.05* +/− pmol of 5α-DHT formed/culture well | 8.56 pmol of 5α-DHT formed/culture well and 8.04 pmol of 5α-DHT formed/culture well and 7.56 pmol of 5α-DHT formed/culture well | B
3 | CCCCCC[C@@H](O)C/C=C\CCCCCCCC(=O)OC [Methyl ricinoleate, methyl ricinoleate] | 63 percentage of the “DMSO 0.1% (v/v)” group | 37 | 7.19* +/− pmol of 5α-DHT formed/culture well | 6.52 pmol of 5α-DHT formed/culture well and 8.36 pmol of 5α-DHT formed/culture well and 6.68 pmol of 5α-DHT formed/culture well | 62 percentage of the “DMSO 0.1% (v/v)” group | 38 | 7.04* +/− pmol of 5α-DHT formed/culture well | 7.84 pmol of 5α-DHT formed/culture well and 7.40 pmol of 5α-DHT formed/culture well and 5.88 pmol of 5α-DHT formed/culture well | 38 percentage of the “DMSO 0.1% (v/v)” group | 62 | 4.33* +/− pmol of 5α-DHT formed/culture well | 3.68 pmol of 5α-DHT formed/culture well and 4.52 pmol of 5α-DHT formed/culture well and 4.80 pmol of 5α-DHT formed/culture well | A
4 | CCCCCCCCCCCC(=O)OC [Methyl laurate, methyl laurate] | 57 percentage of the “DMSO 0.1% (v/v)” group | – | 6.49* +/− pmol of 5α-DHT formed/culture well | 5.76 pmol of 5α-DHT formed/culture well and 6.88 pmol of 5α-DHT formed/culture well and 6.84 pmol of 5α-DHT formed/culture well | 77 percentage of the “DMSO 0.1% (v/v)” group | – | 8.75 pmol of 5α-DHT formed/culture well | 6.84 pmol of 5α-DHT formed/culture well and 9.88 pmol of 5α-DHT formed/culture well and 9.52 pmol of 5α-DHT formed/culture well | 86 percentage of the “DMSO 0.1% (v/v)” group | – | 9.80 pmol of 5α-DHT formed/culture well | 8.48 pmol of 5α-DHT formed/culture well and 11.96 pmol of 5α-DHT formed/culture well and 8.96 pmol of 5α-DHT formed/culture well | B
5 | CCCCCCCC/C=C\CCCCCCCC(=O)OCCCC [Butyl oleate, butyl oleate] | 79 percentage of the “DMSO 0.1% (v/v)” group | 21 | 9.00* +/− pmol of 5α-DHT formed/culture well | 10.64 pmol of 5α-DHT formed/culture well and 8.28 pmol of 5α-DHT formed/culture well and 8.08 pmol of 5α-DHT formed/culture well | 55 percentage of the “DMSO 0.1% (v/v)” group | 45 | 6.21* +/− pmol of 5α-DHT formed/culture well | 6.24 pmol of 5α-DHT formed/culture well and 5.04 pmol of 5α-DHT formed/culture well and 7.36 pmol of 5α-DHT formed/culture well | 51 percentage of the “DMSO 0.1% (v/v)” group | 49 | 5.77* +/− pmol of 5α-DHT formed/culture well | 5.20 pmol of 5α-DHT formed/culture well and 6.72 pmol of 5α-DHT formed/culture well and 5.40 pmol of 5α-DHT formed/culture well | A
6 | CCCCCCCCCCCCCCCCCC(=O)OC [Methyl stearate, methyl stearate] | 59 percentage of the “DMSO 0.1% (v/v)” group | 41 | 6.69* +/− pmol of 5α-DHT formed/culture well | 6.92 pmol of 5α-DHT formed/culture well and 6.08 pmol of 5α-DHT formed/culture well and 7.08 pmol of 5α-DHT formed/culture well | 65 percentage of the “DMSO 0.1% (v/v)” group | 35 | 7.43* +/− pmol of 5α-DHT formed/culture well | 8.80 pmol of 5α-DHT formed/culture well and 6.72 pmol of 5α-DHT formed/culture well and 6.76 pmol of 5α-DHT formed/culture well | 57 percentage of the “DMSO 0.1% (v/v)” group | 43 | 6.52* +/− pmol of 5α-DHT formed/culture well | 6.88 pmol of 5α-DHT formed/culture well and 5.92 pmol of 5α-DHT formed/culture well and 6.76 pmol of 5α-DHT formed/culture well | B
